Patent publication US20100022559A1, “BISOXIMES AS FUNGICIDES” (BAYER CROPSCIENCE AG, priority 2006, published 2010)

Assay: logP determination by HPLC on a reversed-phase column (C 18), EEC Directive 79/831 Annex V.A8
Format: physicochemical
Experimental: The stated logP values were determined in accordance with EEC Directive 79/831 Annex V.A8 by HPLC (high performance liquid chromatography) on a reversed-phase column (C 18). Temperature: 43° C.

[1] = method marker [b], isomer A / isomer B / isomer mixture as noted in the cell
[2] = method marker [a] (footnote not shown), isomer A / isomer B / isomer mixture as noted in the cell
[3] = [b] LC-MS, acidic range, pH 2.7, 0.1% aqueous formic acid and acetonitrile
[4] = [c] LC-MS, neutral range, pH 7.8, 0.001 molar aqueous ammonium bicarbonate solution and acetonitrile

Cc1cccc(C=NOCc2ccc(CON=Cc3cccc(C)n3)cc2)n1 [compound 735]
logP (method marked [b] in Table 1): 2.80^[b]

C=C(CON=C(C)c1ncccc1C)CON=C(C)c1ncccc1C [compound 65]
logP [1]: 2.90^[b]

Cc1cccc(C=NOCC=CCON=Cc2cccc(C)n2)n1 [compound 737]
logP (method marked [b] in Table 1): 2.18^[b]

CC(=NOCC(C)(C)CON=C(C)c1nc(C)c(C)s1)c1cccc(C)n1 [compound 411]
logP (value marked [b]): 5.36^[b]

CCC(=NOCC1(CON=C(CC)c2cccc(C)n2)CC(c2ccccc2)=NO1)c1cccc(C)n1 (centres unmarked) [compound 611]
logP (method marked [b] in Table 1): 5.08^[b]

Cc1cccc(C(=NOCCCON=C(c2cccc(C)n2)C2CC2)C2CC2)n1 (mixture of isomers) [Compound 167]
logP [2]: 2.85^[a]

C=C(CON=C(C)c1cccc(C)n1)CON=C(C)c1cncc(C)n1 [compound 480]
logP (value marked [b]): 3.46^[b]

CC(=NOCC(C)CON=C(C)c1cccnc1C)c1cccc(C)n1 (centres unmarked) [compound 500]
logP (value marked [b]): 1.85^[b]

CC(=NOCC1(CON=C(C)c2cccc(C)n2)CC1)c1cccc(C)n1 [Compound 15]
logP [1]: 3.44^[b]

CC(=NOCC(C)CON=C(C)c1nc(C)c(C)cc1C)c1nc(C)c(C)cc1C (centres unmarked) [Compound 255]
logP (value marked [a]): 2.19^[a]

CC(=NOCC(C)CON=C(C)c1cccc(C)n1)c1cccc(C(F)(F)F)c1 (centres unmarked) [compound 433]
logP (value marked [b]): 5.71^[b]

CCCC(=NOCC(C)CON=C(C)c1cccc(C)n1)c1ncccc1C (single isomer, unassigned) [compound 548]
logP (method marked [b] in Table 1): 3.85^[b] (isomer A)

CCC(=NOCC1(CON=C(CC)c2cc(C)cc(C)n2)CC1)c1cc(C)cc(C)n1 (mixture of isomers) [Compound 570]
logP (method marked [a] in Table 1): 3.22^[a]

C/C(=N\OCC(C)CON)c1cccc(-c2cccc(C)n2)n1 (racemic) [XII-5]
logP [3]: 1.35^[b]
logP [4]: 3.36^[c]

C=C(CON=C(C)c1ccncc1)CON=C(C)c1cccc(C)n1 [compound 467]
logP (value marked [b]): 1.88^[b]

CC(=NOCC(CON=C(C)c1cccc(C)n1)c1ccccc1)c1cccc(C)n1 (centres unmarked) [Compound 264]
logP (value marked [b]): 4.63^[b]

CC(=NOC(=O)NCCCCNC(=O)ON=C(C)c1ccc(C)c(C)n1)c1ccc(C)c(C)n1 [compound 851]
logP (value marked [a]): 2.04^[a]

CC(=NOC(=O)N(C)C(=O)ON=C(C)c1cccc(C)n1)c1cccc(C)n1 [compound 744]
logP (method marked [b] in Table 1): 2.57^[b]

C=C(CON=C(C)c1cccc(COC)n1)CON=C(C)c1cccc(COC)n1 [compound 291]
logP (value marked [b]): 4.44^[b]

CC(=NOCC1(CON=C(C)c2nc(C)ccc2C)CCCC1)c1nc(C)ccc1C (single isomer, unassigned) [Compound 763]
logP (value marked [b]): 4.76^[b]
logP (value marked [c]): 6.32^[c]

CC(=NOCC(C)CON=C(C)c1cccc(C)n1)c1ccc2c(c1)CC(C)O2 (centres unmarked) [compound 494]
logP (value marked [a]): 5.27^[a]

CC(=NOCCON=C(C)c1cnc(-c2ccccc2)s1)c1cnc(-c2ccccc2)s1 [compound 48]
logP [1]: 6.51^[b]

C=C(CON=C(C)c1nc(C)ccc1OC)CON=C(C)c1nc(C)ccc1OC [Compound 283]
logP (value marked [b]): 2.05^[b]

CON=C(c1ccccc1)c1cccc(C(C)=NOCC(C)CON=C(C)c2cccc(C)n2)n1 (mixture of isomers) [Compound 693]
logP (method marked [b] in Table 1): 6.22^[b]

Cc1cc(C)nc(/C(N)=N/OCC(C)CO/N=C(\N)c2nc(C)cc(C)n2)n1 (centres unmarked) [Compound 10]
logP [1]: 1.81^[b]

CC(=NOCC1(CON=C(C)c2cccc(C)n2)CCO1)c1ccccn1 (racemic) [compound 26]
logP [2]: 2.29^[a]
logP [1]: 2.43^[b]

C=C(CON=C(C)c1cccc(C)n1)CON=C(C)c1nccc(OCC)n1 [compound 249]
logP [1]: 3.17^[b]

CC(=NOCC(C)(C)CON=C(C)c1ccc2c(n1)CCCCC2)c1ccc2c(n1)CCCCC2 [Compound 592]
logP (method marked [a] in Table 1): 6.04^[a]

C=C(CON=C(C)c1cccc(C)n1)CON=C(N)c1ncc(Cl)cc1Cl [compound 246]
logP [1]: 3.00^[b]

Cc1cc(C)nc(/C(N)=N/OCO/N=C(\N)c2nc(C)cc(C)n2)n1 [compound 5]
logP [1]: 1.49^[b]

CC(=NOCC1(CON=C(C)c2cccc(C3CC3)n2)CC1)c1cccc(C2CC2)n1 [Compound 848]
logP (value marked [a]): 7.36^[a]

CC(=NOCC(C)(C)CON=C(C)c1cccc(C)n1)c1ccc2c(c1)CC(C)O2 (centres unmarked) [compound 482]
logP (value marked [b]): 5.65^[b]

CC(=NOCCCCON=C(C)c1nc(C)c(C)s1)c1cccc(C)n1 [compound 377]
logP (value marked [b]): 4.62^[b]

COc1cccc(C(C)=NOCCCCCCON=C(C)c2cccc(C)n2)c1 [compound 457]
logP (value marked [b]): 5.59^[b]

CCCC(=NOCC1(CON=C(CCC)c2cccc(C)n2)CC(c2cccc(Cl)c2)=NO1)c1cccc(C)n1 (centres unmarked) [compound 624]
logP (method marked [b] in Table 1): 6.58^[b]

COc1cc(C)nc(C(C)=NOCC2(CON=C(C)c3cc(OC)cc(C)n3)CC2)c1 [Compound 816]
logP (value marked [a]): 1.34^[a]
logP (value marked [c]): 4.94^[c]

CC(=NOCC1(CON=C(C)c2nc(C)ccc2C)CCC1)c1nc(C)ccc1C (single isomer, unassigned) [compound 760]
logP (method marked [c] in Table 1): 4.72^[c]
logP (value marked [b]): 2.72^[b]

CC(=NOCC(C)(C)CON=C(c1ccccc1)c1cccc(C)n1)c1cccc(C)n1 [Compound 371]
logP (value marked [b]): 4.51^[b]

CCCc1cccc(C(C)=NOCC(C)CON=C(C)c2cccc(CCC)n2)n1 (centres unmarked) [Compound 175]
logP [2]: 7.36^[a]

COc1cc(C)nc(C(C)=NOCC(C)CON=C(C)c2cccc(C)n2)c1 (centres unmarked) [Compound 501]
logP (value marked [b]): 3.37^[b]

CCC(CC)(CON=C(C)c1cccc(C)n1)CON=C(C)c1cccc(C)n1 [Compound 809]
logP (value marked [b]): 6.68^[b]
logP (value marked [c]): 6.97^[c]

CC(=NOC(C)C(C)C(C)ON=C(C)c1cc(C)cc(C)n1)c1cc(C)cc(C)n1 (mixture of isomers) [Compound 790]
logP (value marked [a]): 3.60^[a]
logP (value marked [b]): 4.44^[b]

CC(=NOCCCCON=C(C)c1cccc(C)n1)c1cnccn1 [compound 512]
logP (value marked [b]): 3.02^[b]

CC[Si](CC)(CON=C(C)c1cccc(C)n1)CON=C(C)c1cccc(C)n1 [Compound 782]
logP (value marked [a]): 6.65^[a]
logP (value marked [b]): 6.65^[b]
logP (value marked [c]): 7.01^[c]

C=C(CON=C(C)c1cccc(C)n1)CON=C(CC(C)C)c1ncccc1C (single isomer, unassigned) [compound 155]
logP [1]: 4.40^[b] (isomer A)

CC(=NOCc1ccccc1CON=C(C)c1ccccn1)c1ccccn1 [Compound 725]
logP (method marked [b] in Table 1): 3.76^[b]

CC(=NOCC(C)(C)CON=C(c1ccccc1)c1cccc(C)n1)c1cccc(C)n1 (mixture of isomers) [Compound 880]
logP (value marked [b]): 4.72^[b]
logP (value marked [c]): 5.37^[c]

CC(=NOCC(C)CON=C(C)c1cccc(C(C)C)n1)c1cccc(C)n1 (centres unmarked) [Compound 504]
logP (value marked [b]): 6.29^b]

C/C(=N\OCC(C)CON)c1cccc(C)n1 (racemic) [XII-11]
logP ([a] acidic range, pH 2.3, 0.1% aqueous phosphoric acid and acetonitrile): 0.7^[a]
logP [3]: 0.7^[b]
logP [4]: 2.15^[c]

C=C(CON=C(C)c1cccc(C)n1)CON=C(C)c1cccn1C [compound 197]
logP [1]: 4.37^[b]

CCOC(=O)C(C)(CON=C(C)c1nc(C)ccc1C)CON=C(C)c1nc(C)ccc1C (centres unmarked) [compound 884]
logP (value marked [b]): 2.47^[b]
logP (value marked [c]): 3.84^[c]

C=C(CO/N=C(\N)c1nc(C)cc(C)n1)CO/N=C(\N)c1nc(C)cc(C)n1 [compound 8]
logP [1]: 1.80^[b]

CC(=NOC(=O)CCC(=O)ON=C(C)c1cccc(C)n1)c1cccc(C)n1 [compound 159]
logP [2]: 2.40^[a]

CC(=NOCCCCON=C(CC(C)C)c1cccc(C)n1)c1cccc(C)n1 (single isomer, unassigned) [compound 331]
logP (value marked [b]): 5.46^[b] (isomer A)

CC(=NOCCCCON=C(c1cccc(C)n1)C1CC1)c1cccc(C)n1 [compound 335]
logP (value marked [b]): 3.28^[b]

CC(=NOCCCCON=C(C)c1cccc(C)n1)c1ccc2c(c1)CC(C)O2 (centres unmarked) [compound 441]
logP (value marked [b]): 4.91^[b]

COCc1nc(/C(N)=N/OCc2cccc(CO/N=C(\N)c3nc(COC)c(C)c(COC)n3)c2)nc(COC)c1C [compound 713]
logP (method marked [b] in Table 1): 2.06^[b]

CC(=NOCCCON=C(C)c1cc(C)n(C)n1)c1cc(C)n(C)n1 [compound 259]
logP (value marked [a]): 2.70^[a]

CC(=NOCC1(CON=C(C)c2nc(C)ccc2C)CCCC1)c1nc(C)ccc1C (single isomer, unassigned) [compound 762]
logP (value marked [b]): 3.04^[b]
logP (value marked [c]): 5.14^[c]

C#Cc1cc(C)nc(C(C)=NOCC(C)CON=C(C)c2cc(C#C)cc(C)n2)c1 (centres unmarked) [compound 873]
logP (value marked [a]): 6.65^[a]
logP (value marked [b]): 6.65^[b]
logP (value marked [c]): 6.61^[c]

Cc1cccnc1C(=NOCC(C)CON=C(c1ncccc1C)C(C)C)C(C)C (mixture of isomers) [compound 103]
logP [2]: 4.28^[a]

CC(=NOCC(C)(C)CON=C(C)c1cccc(C(C)C)n1)c1cccc(C)n1 [Compound 491]
logP (value marked [b]): 6.87^[b]

CC(=NOC/C=C/CON=C(C)c1ccccn1)c1ccccn1 [compound 781]
logP (value marked [b]): 2.84^[b]

Cc1cccc(C(=NOCC(C)CON=C(c2cccc(C)n2)C(F)(F)F)C(F)(F)F)n1 (centres unmarked) [compound 214]
logP [1]: 4.83^[b]

CC(=NOCc1ccc(CON=C(C)c2cccc(C)n2)cc1)c1cccc(C)n1 [compound 705]
logP (method marked [b] in Table 1): 4.27^[b]

C=C(CON=C(C)c1cccc(C)n1)CON=C(N)c1ccc(C)n1C [compound 199]
logP [1]: 2.23^[b]

C=C(CON=C(C)c1cc(C(=O)OC)cc(C)n1)CON=C(C)c1cc(C(=O)OC)cc(C)n1 [compound 178]
logP [1]: 5.46^[b]

CC(=NOCCCCCCON=C(C)c1cccc(C)n1)c1cccc(C)n1 [Compound 73]
logP [1]: 4.47^[b]

CC(=NOCC1(CON=C(C)c2cccc(NCC3CC3)n2)CC1)c1cccc(NCC2CC2)n1 [compound 849]
logP (value marked [b]): 1.93^[b]

CC(=NOCC(C)CON=C(C)c1nccc(C)n1)c1cccc(C)n1 (centres unmarked) [compound 506]
logP (value marked [b]): 2.59^[b]
